Patent publication US20100204131A1, “USE OF A PEPTIDE AS A THERAPEUTIC AGENT” (priority 2007, published 2010)
No end group written: not given here.

Key:
HIV-1IIIB = test: HIV-1 antiviral assay in CEM-SS cells; conditions: CEM-SS cells infected with HIV-1IIIB
HCMV strain AD169 = test: HCMV plaque formation assay in MRC-5 cells; conditions: for inhibition of HCMV plaque formation as compared to the virus control: 10 micrograms per ml, MRC-5 cells, 7-10 days
[1] = system: hepatitis B virus (HBV) ayw strain; test: HBV experimental assay system (HepG2-2.2.15, TaqMan PCR); type: cell-based; conditions: 10 micrograms per ml; HepG2-2.2.15 cells; six days; HBV DNA by TaqMan PCR
From the text: HepG2-2.2.15 is a stable cell line containing the hepatitis B virus (HBV) ayw strain genome (ATCC Cat. No. CRL-11997). Antiviral compounds blocking any late step of viral replication such as transcription, translation, pregenome encapsidation, reverse transcription, particle assembly and release can be identified and characterized using this cell line. In this assay, an active compound will reduce the production of secreted HBV from cells, measured by utilizing real time quantitative PCR (TaqMan) assay to directly and accurately measure HBV DNA copies.
HepG2-2.2.15 cells were plated in 96-well microtiter plates. After 16-24 hours the confluent monolayer of HepG2-2.2.15 cells was washed and the medium was replaced with complete medium containing test peptides—10 micrograms per ml—in duplicate. […] Six days following the initial administration of the peptides, the cell culture supernatants was collected, treated with pronase and DNAse and then used in a real-time quantitative TaqMan PCR assay. The PCR-amplified HBV DNA was detected in real-time by monitoring increases in fluorescence signals that result from the exonucleolytic degradation of a quenched fluorescence probe molecule that hybridizes to the amplified HBV DNA. […] Antiviral activity was calculated from the reduction in HBV DNA levels (% virus control). […]

[2] = system: Primary Human endothelial cells (HUVEC); test: Endothelial cell migration assay; conditions: 10 micrograms per ml, 22 hours, transwell
Method: Primary Human endothelial cells (HUVEC) were seeded in insert chambers with 3 micrometer pore size of multi-transwell plate for 6 hours at 37° C. in Endothelial Cell Basal Medium (EBM) supplemented with 0.1% bovine serum albumin. Thereafter, designated concentration of testing peptides -10 micrograms per ml—was added in duplicate wells. The endothelia were allowed to migrate for 22 hours at 37° C., then, migrated cells were fixed and stained with Hoechst 33342 dye. Images of 3 fields per insert were taken and the number of migrated cells per field were quantified using the ImageProPlus software. Data were analyzed for the average number of the migrated cells and standard deviation of six data points for each treatment condition. […] Statistic p values were computed using the Student's t-test.

HUVEC = test: Endothelial tube formation assay; conditions: 10 micrograms per ml, 20 hours, average tubule length
Method: The endothelial tube formation assay is based on the ability of endothelial cells to form three-dimensional capillary-like tubular structures when cultured on a gel of basement membrane extract. […] Pre-labeled HUVEC with Calcein AM were seeded in a 96-well culture plate coated with extracellular metrix (Chemicon international Cat. ECM625) and treated with test peptides—10 micrograms per ml—in full growth medium. Positive control was vehicle only. The endothelial cells were allowed to form tubes foe 20 hours and were then examined under an inverted fluorescent microscope. Duplicate wells for each treatment were photographed and quantitatevily analyzed for an average tubule length using image analysis software ImageProPlus. Raw data were expressed as average tubule lengths in pixels ±standard deviation. Statistic p values were computed using the Student's t-test.

IFNγ spleen cells = test: Th1/Th2 cytokine profiling assay: IFNγ; conditions: 10 micrograms per ml; spleen cells of Ovalbumin-immunized Balb/c mice restimulated with Ovalbumin 10 micrograms/ml; 72 hours; supernatant
From the text: (§1) The Balb/c mice (originated in 1923, it is a popular strain and is used in many different research disciplines. Also classified as an inbred from the production of 20 or more successive brother-sister matings, the Balb/c mouse is albino and small in size) were immunized on Days 1, 15, and 29 with Ovalbumin (Ovalbumin is the main protein found in egg white, commonly used to stimulate an immunological reaction in test animals) in PBS (5 micrograms/injection). On day 50, spleens of the mice were harvested (3 weeks after last boost with Ovalbumin). […] Thereafter, additional Ovalbumin was added to the cells at 10 micrograms/ml for in vitro restimulation of the cells. 72 hours later, cell supernatants were harvested and assayed using the Becton Dickinson Mouse Th1/Th2 Cytokine CBA Kit. This kit can be used to measure Interleukin-2 (IL-2), Interleukin-4 (IL-4), Interleukin-5 (IL-5), Interferon-γ (IFN-γ), and Tumor Necrosis Factor-α (TNF-α) protein levels in a single sample.

IL-2 spleen cells = test: Th1/Th2 cytokine profiling assay: IL-2; conditions: 10 micrograms per ml; spleen cells of Ovalbumin-immunized Balb/c mice restimulated with Ovalbumin 10 micrograms/ml; 72 hours; supernatant
From the text: (§2) The Balb/c mice (originated in 1923, it is a popular strain and is used in many different research disciplines. Also classified as an inbred from the production of 20 or more successive brother-sister matings, the Balb/c mouse is albino and small in size) were immunized on Days 1, 15, and 29 with Ovalbumin (Ovalbumin is the main protein found in egg white, commonly used to stimulate an immunological reaction in test animals) in PBS (5 micrograms/injection). On day 50, spleens of the mice were harvested (3 weeks after last boost with Ovalbumin). […] Thereafter, additional Ovalbumin was added to the cells at 10 micrograms/ml for in vitro restimulation of the cells. 72 hours later, cell supernatants were harvested and assayed using the Becton Dickinson Mouse Th1/Th2 Cytokine CBA Kit.

IL-4 spleen cells = test: Th1/Th2 cytokine profiling assay: IL-4; conditions: 10 micrograms per ml; spleen cells of Ovalbumin-immunized Balb/c mice restimulated with Ovalbumin 10 micrograms/ml; 72 hours; supernatant
From the text: as §2

IL-5 spleen cells = test: Th1/Th2 cytokine profiling assay: IL-5; conditions: 10 micrograms per ml; spleen cells of Ovalbumin-immunized Balb/c mice restimulated with Ovalbumin 10 micrograms/ml; 72 hours; supernatant
From the text: as §2

TNF-a spleen cells = test: Th1/Th2 cytokine profiling assay: TNF-a; conditions: 10 micrograms per ml; spleen cells of Ovalbumin-immunized Balb/c mice restimulated with Ovalbumin 10 micrograms/ml; 72 hours; supernatant
From the text: as §1

Cc1cn([C@H]2C[C@H](N=[N+]=[N-])[C@@H](CO)O2)c(=O)[nH]c1=O [AZT]
antiviral activity of positive control compounds (HIV-1IIIB): expected levels of antiviral activity

Nc1nc(O)c2ncn(COC(CO)CO)c2n1 [Ganciclovir, reference compound]
antiviral activity of positive control compound (HCMV strain AD169; positive control, HCMV in MRC-5 cells): expected levels of antiviral activity

CC(C)(C)NC(=O)[C@@H]1CN(Cc2cccnc2)CCN1C[C@@H](O)C[C@@H](Cc1ccccc1)C(=O)N[C@H]1c2ccccc2C[C@H]1O [indinavir]
antiviral activity of positive control compounds (HIV-1IIIB): expected levels of antiviral activity

Ala-Ser-Gln-Phe-Glu-Thr-Ser-OH (ASQFETS-OH) [peptide 2]
inhibition of HBV replication on tested liver cells [1]: no effect | inhibition of the migration of human endothelial cells [2]: 28% | inhibition of the tube formation of endothelial cells (HUVEC): 27% | IFNγ spleen cells; TH1 response (% of control) (IFNγ spleen cells): 94.7 % of control | IL-2 spleen cells (% of control) (IL-2 spleen cells): 72.5 % of control | IL-4 spleen cells; TH2 response (% of control) (IL-4 spleen cells): 0.0 % of control | IL-5 spleen cells; TH2 response (% of control) (IL-5 spleen cells): 57.6 % of control | TNF-a spleen cells; TH1 response (% of control) (TNF-a spleen cells): 110.7 % of control | inhibition of HCMV plaque formation as compared to the virus control (HCMV strain AD169): did not inhibit

Ser-Tyr-Ser-Met-Glu-His-Phe-Arg-Trp-Gly-Lys-Pro-Val-Gly-Lys-Lys-Arg-Arg-Pro-Val-Lys-Val-Tyr-Pro-OH (SYSMEHFRWGKPVGKKRRPVKVYP-OH) [peptide 1]
inhibition of HBV replication on tested liver cells [1]: no effect | inhibition of the migration of human endothelial cells [2]: did not inhibit | inhibition of the tube formation of endothelial cells (HUVEC): 25% | IFNγ spleen cells; TH1 response (% of control) (IFNγ spleen cells): 103.7 % of control | IL-2 spleen cells (% of control) (IL-2 spleen cells): 149.2 % of control | IL-4 spleen cells; TH2 response (% of control) (IL-4 spleen cells): 132.1 % of control | IL-5 spleen cells; TH2 response (% of control) (IL-5 spleen cells): 82.6 % of control | TNF-a spleen cells; TH1 response (% of control) (TNF-a spleen cells): 97.0 % of control | inhibition of HCMV plaque formation as compared to the virus control (HCMV strain AD169): did not inhibit
